In brackets after ≈: the same amount, converted by molar mass. Each block holds one molecule with its values, some of them ahead of it.
Experiments:
Streptococcus agalactiae = experiment: MIC against contemporary clinical isolates; details: for MIC50 / MIC90: Streptococcus agalactiae; for % S (CLSI % susceptible) / MIC Range: n = 10
[1] = system: Staphylococcus aureus MSSA; experiment: MIC against contemporary clinical isolates; details: for % S (CLSI % susceptible) / MIC Range: MSSA (n = 20); for MIC50 / MIC90: Staphylococcus aureus, MSSA
Streptococcus pneumoniae = experiment: MIC against contemporary clinical isolates; details: for MIC50 / MIC90: Streptococcus pneumoniae, PRSP; for % S (CLSI % susceptible) / MIC Range: n = 20, 28.6% PSSP, 33.3% PISP, 38.1% PRSP
[2] = system: Viridans Group Streptococci; experiment: MIC against contemporary clinical isolates; details: n = 5
[3] = system: Staphylococcus epidermidis; experiment: MIC against contemporary clinical isolates; details: for MIC50 / MIC90: Staphylococcus epidermidis; for % S (CLSI % susceptible) / MIC Range: n = 20
Enterococcus faecium = experiment: MIC against contemporary clinical isolates; details: for % S (CLSI % susceptible) / MIC Range: n = 10, 50% VRE
[4] = system: Staphylococcus aureus MRSA; experiment: MIC against contemporary clinical isolates; details: for % S (CLSI % susceptible) / MIC Range: MRSA (n = 20); for MIC50 / MIC90: Staphylococcus aureus, MRSA
Enterococcus faecalis = experiment: MIC against contemporary clinical isolates; details: for % S (CLSI % susceptible) / MIC Range: n = 10, 50% VRE
[5] = system: Staphylococcus aureus Linezolid^R; experiment: MIC against contemporary clinical isolates; details: Linezolid^R (n = 5)
Streptococcus pyogenes = experiment: MIC against contemporary clinical isolates; details: for MIC50 / MIC90: Streptococcus pyogenes; for % S (CLSI % susceptible) / MIC Range: n = 10
[6] = system: Staphylococcus aureus VISA; experiment: MIC against contemporary clinical isolates; details: for MIC50 / MIC90: Staphylococcus aureus, VISA; for % S (CLSI % susceptible) / MIC Range: VISA (n = 10)
[7] = system: Staphylococcus aureus Daptomycin^NS; experiment: MIC against contemporary clinical isolates; details: Daptomycin^NS (n = 5)
[8] = system: S. aureus MRSA ATCC 33591; experiment: Mouse septicemia protection assay; assay type: in vivo; details: CD-1 female mice, IV, QD single dose one hour post infection, survival after 48 hrs
Description: CD-1 female mice were infected with 0.5 mL of bacterial suspension (3.28×10^7 CFU/mouse) via intraperitoneal injection, a concentration that achieves at least 90% mortality within 48 hours after infection. At one hour post infection, mice were treated with the compound intravenously with single doses and the results are shown in Table 12.

MIC50 (Streptococcus agalactiae): 1 µg/mL (≈ 2.96 µM) | MIC90 (Streptococcus agalactiae): 1 µg/mL (≈ 2.96 µM) | MIC Range (Streptococcus agalactiae): 0.5-2^ μg/mL | MIC Range [1]: 2 to 4 µg/mL | MIC50 [1]: 2 µg/mL (≈ 5.93 µM) | MIC90 [1]: 4 µg/mL (≈ 11.9 µM) | MIC50 (Streptococcus pneumoniae): 1 µg/mL (≈ 2.96 µM) | MIC90 (Streptococcus pneumoniae): 1 µg/mL (≈ 2.96 µM) | MIC Range (Streptococcus pneumoniae): 0.25 to 1 µg/mL | MIC Range [2]: 0.5-1^ μg/mL | MIC50 [3]: 2 µg/mL (≈ 5.93 µM) | MIC90 [3]: 2 µg/mL (≈ 5.93 µM) | MIC Range [3]: 1 to 4 µg/mL | MIC50 (Enterococcus faecium): 2 µg/mL (≈ 5.93 µM) | MIC90 (Enterococcus faecium): 2 µg/mL (≈ 5.93 µM) | MIC Range (Enterococcus faecium): 1 to 2 µg/mL | MIC Range [4]: 2 to 4 µg/mL | MIC50 [4]: 2 µg/mL (≈ 5.93 µM) | MIC90 [4]: 4 µg/mL (≈ 11.9 µM) | MIC50 (Enterococcus faecalis): 2 µg/mL (≈ 5.93 µM) | MIC90 (Enterococcus faecalis): 2 µg/mL (≈ 5.93 µM) | MIC Range (Enterococcus faecalis): 1 to 2 µg/mL | MIC50 (Streptococcus pyogenes): 1 µg/mL (≈ 2.96 µM) | MIC90 (Streptococcus pyogenes): 1 µg/mL (≈ 2.96 µM) | MIC Range (Streptococcus pyogenes): 0.5-1^ μg/mL | MIC50 [6]: 2 µg/mL (≈ 5.93 µM) | MIC90 [6]: 2 µg/mL (≈ 5.93 µM) | MIC Range [6]: 1 to 4 µg/mL | MIC Range [7]: 1 to 32 µg/mL
SMILES: CC(=O)NC[C@H]1CN(c2ccc(N3CCOCC3)c(F)c2)C(=O)O1 [Linezolid]
% S (CLSI % susceptible) (Streptococcus agalactiae): 100.0% | % S (CLSI % susceptible) [1]: 100.0% | % S (CLSI % susceptible) (Streptococcus pneumoniae): 100.0% | % S (CLSI % susceptible) [2]: 100.0% | % S (CLSI % susceptible) [3]: 100.0% | % S (CLSI % susceptible) (Enterococcus faecium): 100.0% | % S (CLSI % susceptible) [4]: 100.0% | % S (CLSI % susceptible) (Enterococcus faecalis): 100.0% | % S (CLSI % susceptible) [5]: 0.0% | % S (CLSI % susceptible) (Streptococcus pyogenes): 100.0% | % S (CLSI % susceptible) [6]: 100.0% | % S (CLSI % susceptible) [7]: 80.0%

SMILES: CN[C@H](CC(C)C)C(=O)N[C@H]1C(=O)N[C@@H](CC(N)=O)C(=O)N[C@H]2C(=O)N[C@H]3C(=O)N[C@H](C(=O)N[C@H](C(=O)O)c4cc(O)cc(O)c4-c4cc3ccc4O)[C@H](O)c3ccc(c(Cl)c3)Oc3cc2cc(c3O[C@@H]2O[C@H](CO)[C@@H](O)[C@H](O)[C@H]2O[C@H]2C[C@](C)(N)[C@H](O)[C@H](C)O2)Oc2ccc(cc2Cl)[C@H]1O [Vancomycin]
MIC50 (Streptococcus agalactiae): 0.5 µg/mL (≈ 0.345 µM) | MIC90 (Streptococcus agalactiae): 0.5 µg/mL (≈ 0.345 µM) | % S (CLSI % susceptible) (Streptococcus agalactiae): 100.0% | MIC Range (Streptococcus agalactiae): 0.25 to 0.5 µg/mL | % S (CLSI % susceptible) [1]: 100.0% | MIC Range [1]: 0.5-1^ μg/mL | MIC50 [1]: 0.5 µg/mL (≈ 0.345 µM) | MIC90 [1]: 1 µg/mL (≈ 0.69 µM) | MIC50 (Streptococcus pneumoniae): 0.25 µg/mL (≈ 0.173 µM) | MIC90 (Streptococcus pneumoniae): 0.25 µg/mL (≈ 0.173 µM) | % S (CLSI % susceptible) (Streptococcus pneumoniae): 100.0% | MIC Range (Streptococcus pneumoniae): 0.12 to 0.5 µg/mL | % S (CLSI % susceptible) [2]: 100.0% | MIC Range [2]: 0.25 to 0.5 µg/mL | MIC50 [3]: 2 µg/mL (≈ 1.38 µM) | MIC90 [3]: 2 µg/mL (≈ 1.38 µM) | % S (CLSI % susceptible) [3]: 100.0% | MIC Range [3]: 1 to 2 µg/mL | MIC50 (Enterococcus faecium): 0.5 µg/mL (≈ 0.345 µM) | MIC90 (Enterococcus faecium): > 32 µg/mL | % S (CLSI % susceptible) (Enterococcus faecium): 50.0% | % S (CLSI % susceptible) [4]: 100.0% | MIC Range [4]: 0.5-2^ μg/mL | MIC50 [4]: 0.5 µg/mL (≈ 0.345 µM) | MIC90 [4]: 1 µg/mL (≈ 0.69 µM) | MIC50 (Enterococcus faecalis): 1 µg/mL (≈ 0.69 µM) | MIC90 (Enterococcus faecalis): > 32 µg/mL | % S (CLSI % susceptible) (Enterococcus faecalis): 50.0% | % S (CLSI % susceptible) [5]: 100.0% | MIC Range [5]: 1 µg/mL (≈ 0.69 µM) | MIC50 (Streptococcus pyogenes): 0.25 µg/mL (≈ 0.173 µM) | MIC90 (Streptococcus pyogenes): 0.25 µg/mL (≈ 0.173 µM) | % S (CLSI % susceptible) (Streptococcus pyogenes): 100.0% | MIC Range (Streptococcus pyogenes): 0.25 µg/mL (≈ 0.173 µM) | PD50 [8]: ~2.75 mg/kg | PD50 ([8]; listed as vancomycin): ~2.75 mg/kg | MIC50 [6]: 4 µg/mL (≈ 2.76 µM) | MIC90 [6]: 8 µg/mL (≈ 5.52 µM) | % S (CLSI % susceptible) [6]: 10.0% | MIC Range [6]: 1 to 8 µg/mL | % S (CLSI % susceptible) [7]: 40.0% | MIC Range [7]: 0.5-8^ μg/mL

MIC50 (Streptococcus agalactiae): 0.12 µg/mL (≈ 0.074 µM) | MIC90 (Streptococcus agalactiae): 0.12 µg/mL (≈ 0.074 µM) | MIC Range (Streptococcus agalactiae): 0.06 to 0.25 µg/mL | MIC Range [1]: 0.12 to 0.25 µg/mL | MIC50 [1]: 0.25 µg/mL (≈ 0.154 µM) | MIC90 [1]: 0.25 µg/mL (≈ 0.154 µM) | MIC50 (Streptococcus pneumoniae): ≤ 0.03 µg/mL | MIC90 (Streptococcus pneumoniae): ≤ 0.03 µg/mL | MIC Range (Streptococcus pneumoniae): ≦0.03-0.06^ μg/mL | MIC Range [2]: 0.06 to 0.25 µg/mL | MIC50 [3]: 0.12 µg/mL (≈ 0.074 µM) | MIC90 [3]: 0.25 µg/mL (≈ 0.154 µM) | MIC Range [3]: 0.06 to 0.25 µg/mL | MIC50 (Enterococcus faecium): 0.5 µg/mL (≈ 0.309 µM) | MIC90 (Enterococcus faecium): 1 µg/mL (≈ 0.617 µM) | MIC Range (Enterococcus faecium): 0.5-1^ μg/mL | MIC Range [4]: 0.12 to 0.25 µg/mL | MIC50 [4]: 0.25 µg/mL (≈ 0.154 µM) | MIC90 [4]: 0.25 µg/mL (≈ 0.154 µM) | MIC50 (Enterococcus faecalis): 0.25 µg/mL (≈ 0.154 µM) | MIC90 (Enterococcus faecalis): 0.5 µg/mL (≈ 0.309 µM) | MIC Range (Enterococcus faecalis): 0.12 to 8 µg/mL | MIC Range [5]: 0.25 to 0.5 µg/mL | MIC50 (Streptococcus pyogenes): ≤ 0.03 µg/mL | MIC90 (Streptococcus pyogenes): 0.06 µg/mL (≈ 0.037 µM) | MIC Range (Streptococcus pyogenes): ≦0.03-0.06^ μg/mL | MIC50 [6]: 0.5 µg/mL (≈ 0.309 µM) | MIC90 [6]: 1 µg/mL (≈ 0.617 µM) | MIC Range [6]: 0.25 to 1 µg/mL | MIC Range [7]: 2 to 8 µg/mL
SMILES: CCCCCCCCCC(=O)N[C@@H](Cc1c[nH]c2ccccc12)C(=O)N[C@H](CC(N)=O)C(=O)N[C@@H](CC(=O)O)C(=O)N[C@@H]1C(=O)NCC(=O)N[C@@H](CCCN)C(=O)N[C@@H](CC(=O)O)C(=O)N[C@H](C)C(=O)N[C@@H](CC(=O)O)C(=O)NCC(=O)N[C@H](CO)C(=O)N[C@@H]([C@H](C)CC(=O)O)C(=O)N[C@@H](CC(=O)c2ccccc2N)C(=O)O[C@@H]1C [Daptomycin]
% S (CLSI % susceptible) (Streptococcus agalactiae): 100.0% | % S (CLSI % susceptible) [1]: 100.0% | % S (CLSI % susceptible) [2]: 100.0% | % S (CLSI % susceptible) [3]: 100.0% | % S (CLSI % susceptible) (Enterococcus faecium): 100.0% | % S (CLSI % susceptible) [4]: 100.0% | % S (CLSI % susceptible) (Enterococcus faecalis): 90.0% | % S (CLSI % susceptible) [5]: 100.0% | % S (CLSI % susceptible) (Streptococcus pyogenes): 100.0% | % S (CLSI % susceptible) [6]: 100.0% | % S (CLSI % susceptible) [7]: 0.0%

Reference: patent US9402878B2, “Depsipeptide and uses thereof” (priority 2012, dated 2016)
